Source: article PMC8923172 (Antimicrobial Agents and Chemotherapy, 2022)
Marks after values point to notes of the source that are not given here. Residues, ends and D or L forms follow the SMILES beside them.

Columns and labels:
[1] = Single- and multiple-dose i.v. pharmacokinetics in cynomolgus monkeys; format: in vivo, cynomolgus monkeys (Macaca fascicularis); conditions: for Cmax: 1-h i.v. infusion; for Cmax / AUC0-∞ / AUCτ / CL / λz / Vss / MRT: mean (SD); for MRT: MRTinf
[2] = Hematology of rats at the end of treatment; format: in vivo, Sprague-Dawley rats; conditions: female, median (IQR)
[3] = both, cynomolgus monkey, plasma, iv, 15 mg/kg/day

## CC[C@H](C)[C@@H]1NC(=O)[C@@H]2CSSC[C@H](NC(=O)[C@H](CCCNC(=N)N)NC(=O)[C@@H]3CSSC[C@H](NC1=O)C(=O)N[C@@H]([C@@H](C)O)C(=O)N[C@@H](CCCNC(=N)N)C(=O)NCC(=O)N[C@@H](Cc1ccccc1)C(=O)N3)C(=O)N[C@@H](CC(C)C)C(=O)N[C@H]1CSSC[C@H](NC(=O)[C@H](C(C)C)NC(=O)CNC(=O)[C@H](CCCNC(=N)N)NC(=O)[C@H](CCCNC(=N)N)NC1=O)C(=O)N[C@@H](CCCNC(=N)N)C(=O)N2 [RTD-1, Rhesus theta (θ) defensin-1] (HELM PEPTIDE1{G.F.C.R.C.L.C.R.R.G.V.C.R.C.I.C.T.R}$PEPTIDE1,PEPTIDE1,3:R3-16:R3|PEPTIDE1,PEPTIDE1,5:R3-14:R3|PEPTIDE1,PEPTIDE1,7:R3-12:R3|PEPTIDE1,PEPTIDE1,1:R1-18:R2$$$V2.0)
[1]; 0.3 mg/kg Day 1, n=2
  Cmax: 582 (109) ng/mL
  AUC0-∞: 617 (137) ng · h/mL
  AUCτ: 591 (145) ng · h/mL
  CL: 498 (111) mL/h/kg
  λz: 0.523 (0.119) h^−1
[1]; 1 mg/kg Day 1, n=2
  Cmax: 2,560 (820) ng/mL
  AUC0-∞: 3,875 (973) ng · h/mL
  AUCτ: 3,818 (961) ng · h/mL
  CL: 266 (66.9) mL/h/kg
  λz: 0.251 (0.035) h^−1
[1]; 3 mg/kg Day 1, n=2
  AUCτ: 10,334 (2,239) ng · h/mL
  λz: 0.078 (0.017) h^−1
[1]; 5 mg/kg Day 1, n=6
  Cmax: 10,700 (2,455) ng/mL
  AUCτ: 27,160 (4,286) ng · h/mL
  λz: 0.323 (0.016) h^−1
[1]; 5 mg/kg Day 10, n=6
  AUCτ: 38,936 (9,829) ng · h/mL
  CL: 136 (36.5)# mL/h/kg
  λz: 0.157 (0.009)# h^−1
[1]; 5 mg/kg/day
  accumulation: mean AUCτ day 10 vs mean AUC0-∞ day 1: approximately 1.4 fold
[1]; 10 mg/kg Day 1, n=8
  Cmax: 26,675 (8,240) ng/mL
  AUCτ: 76,083 (23,562) ng · h/mL
  CL: 143 (48.2)* mL/h/kg
  λz: 0.192 (0.034)* h^−1
[1]; 10 mg/kg Day 10, n=6
  AUCτ: 117,529 (26,077) ng · h/mL
  CL: 88.5 (18.5)* mL/h/kg
  Vss: 624 (88.2) mL/kg
  λz: 0.120 (0.018)* h^−1
[1]; 10 mg/kg/day
  accumulation: mean AUCτ day 10 vs mean AUC0-∞ day 1: ~1.5 fold
[1]; 15 mg/kg Day 1, n=12
  Cmax: 46,458 (15,247)† ng/mL
  AUCτ: 138,135 (34,942) ng · h/mL
  CL: 114 (25.7) mL/h/kg
  Vss: 629 (176)† mL/kg
  λz: 0.149 (0.019)† h^−1
[1]; 15 mg/kg Day 4, n=2
  AUCτ: 139,595 (2,366) ng · h/mL
  λz: 0.072 (0.020) h^−1
[1]; 15 mg/kg Day 7, n=2
  AUCτ: 154,149 (12,406) ng · h/mL
  λz: 0.071 (0.017) h^−1
[1]; 15 mg/kg Day 10, n=9
  Cmax: 32,233 (13,933)† ng/mL
  AUCτ: 173,315 (67,934) ng · h/mL
  Vss: 1,139 (411)† mL/kg
  λz: 0.078 (0.020)† h^−1
[1]; both, cynomolgus monkey, plasma, iv, 0.3 mg/kg, 0.3 mg/kg Day 1, n=2
  MRT: 1.24 h
[1]; both, cynomolgus monkey, plasma, iv, 1 mg/kg, 1 mg/kg Day 1, n=2
  MRT: 1.82 h
[1]; both, cynomolgus monkey, plasma, iv, 3 mg/kg, 3 mg/kg Day 1, n=2
  MRT: 4.3 h
[1]; both, cynomolgus monkey, plasma, iv, 5 mg/kg, 5 mg/kg Day 1, n=6
  MRT: 2.94 h
[1]; both, cynomolgus monkey, plasma, iv, 5 mg/kg, 5 mg/kg Day 10, n=6
  MRT: 4.84 h
[1]; both, cynomolgus monkey, plasma, iv, 10 mg/kg, 10 mg/kg Day 1, n=8
  MRT: 4.4 h
[1]; both, cynomolgus monkey, plasma, iv, 10 mg/kg, 10 mg/kg Day 10, n=6
  MRT: 7.2 h
[1]; both, cynomolgus monkey, plasma, iv, 15 mg/kg, 15 mg/kg Day 1, n=12
  MRT: 5.48 h
[1]; both, cynomolgus monkey, plasma, iv, 15 mg/kg, 15 mg/kg Day 4, n=2
  MRT: 11.8 h
[1]; both, cynomolgus monkey, plasma, iv, 15 mg/kg, 15 mg/kg Day 7, n=2
  MRT: 12.3 h
[1]; both, cynomolgus monkey, plasma, iv, 15 mg/kg, 15 mg/kg Day 10, n=9
  MRT: 12 h
[1]; [3]
  level at 288 h: 0.537 µg/mL
  level at 576 h: 0.0125 µg/mL
[1]; single dose of 0.3 or 1 mg/kg
  time plasma concentrations detectable post-end of infusion: up to 12 h
[2]; 5 mg/kg/day
  Basophils, absolute: 0.02 (0.02) 10^3/mm^3
  Eosinophils, absolute: 0.30 (0.23) 10^3/mm^3
  HDW: 2.37 (0.16) g/dL
  Hematocrits: 40.50 (1.90) %
  Hemoglobin: 13.50 (1.00) g/dL
  LUC, absolute: 0.02 (0.03) 10^3/mm^3
  Lymphocytes, absolute: 4.78 (3.21) 10^3/mm^3
  MCH: 19.10 (1.00) pg
  MCHC: 33.40 (0.40) g/dL
  MCV: 57.90 (2.80) fL
  Monocytes, absolute: 0.17 (0.08) 10^3/mm^3
  Neutrophils, absolute: 1.33 (0.99) 10^3/mm^3
  Platelets: 801.00 (306.00) 10^3/mm^3
  RBC: 6.88 (0.33) 10^6/mm^3
  RDW: 12.70 (0.80) %
  Reticulocytes, absolute: 256.70 (53.50) 10^3/mm^3
  WBC: 6.50 (3.50) 10^3/mm^3
[2]; 10 mg/kg/day
  Basophils, absolute: 0.04 (0.02) 10^3/mm^3
  Eosinophils, absolute: 0.33 (0.14) 10^3/mm^3
  HDW: 2.45 (0.16) g/dL
  Hematocrits: 41.15 (1.83) %
  Hemoglobin: 13.70 (0.38) g/dL
  LUC, absolute: 0.04 (0.03) 10^3/mm^3
